Results reported in paper PMC7435865, “Antinociceptive and Cytotoxic Activity of Opioid Peptides with Hydrazone and Hydrazide Moieties at the C-Terminus” (Molecules, 2020).
Where two headings read alike, the source gives them in different places. Where a SMILES comes first, the peptide text is derived from it. [ ]: non-standard residue; d: D form. The star is where a group is joined. X4 = O=C(NN*)c1cc(C(F)(F)F)cc(C(F)(F)F)c1; X3 = FC(F)(F)c1cc(C=NN*)cc(C(F)(F)F)c1

Columns and labels:
[1] = target: T1, µ opioid receptor (MOR) (Rattus norvegicus, UniProt P33535); test: competitive radioligand binding, [3H]DAMGO displacement in rat brain homogenate
T1 construct: from tissue; host or cells: rat brain (membrane fractions of homogenate)
Description: (§1) The synthesized compounds were assayed for binding affinity to the μ- and δ-opioid (MOR and DOR, respectively), as well as to the neurokinin-1 receptors (NK1R). The determinations were performed in rat brain homogenates by competitive displacement of selective radioligands. The results are shown in Table 2 as the half-maximal inhibitory concentration (IC50) with the standard error of the mean (SEM).
(§2) The binding affinity of compounds 1b–6a for MOR, DOR, and NK1R was determined in competitive radioligand binding assays according to the method previously described. The specific radioligands were [^3H]DAMGO (DAMGO, [Tyr^1-3,5-^3H])), [^3H][Ile^5,6]DELT II ([Ile^5,6]Deltorphin II, [Tyr^l-3,5-^3H]) and [^3H]Substance P (Substance P, [Leu-3,4,5-^3H]), for experiments with MOR, DOR, and NK1R, respectively. The first two were obtained from Isotope Laboratory, Biological Research Centre, Institute of Biochemistry (Szeged, Hungary), whereas the latter was purchased from Perkin Elmer (Perkin Elmer Inc., Krakow, Poland). Membrane fractions of rat brain homogenate were incubated at 25 °C for 60 min in the presence of radioligands (0.5 nM) specific for each receptor and increasing concentrations of the tested compounds. To measure non-specific binding, 10 μM naloxone was used as the competitor for opioid receptors and 10 μM cold Substance P was used for NK1R. The reactions were carried out in assay buffer containing Tris-HCl (pH 7.4) with an addition of bovine serum albumin (BSA) and protease inhibitors (bacitracin, bestatin, captopril). After the incubation, the binding reactions were terminated by rapid filtration with M-24 Cell Harvester (Brandel/USA) through GF/B Whatman glass fiber strips (presoaked with 0.5% PEI in order to minimize non-specific binding). Radioactivity retained on the filters was measured in MicroBeta LS on a Trilux scintillation counter (PerkinElmer, Santa Clara, CA, USA). The experiments were repeated at least two times in duplicate. The IC50 value for each compound was determined using GraphPad Prism.

[2] = target: T2, δ opioid receptor (DOR) (Rattus norvegicus, UniProt P33533); test: competitive radioligand binding, [3H][Ile5,6]Deltorphin II displacement in rat brain homogenate
T2 construct: from tissue; host or cells: rat brain (membrane fractions of homogenate)
Description: as §1, §2

[3] = target: T3, neurokinin-1 receptor (NK1R) (Rattus norvegicus, UniProt P14600); test: competitive radioligand binding, [3H]Substance P displacement in rat brain homogenate
T3 construct: from tissue; host or cells: rat brain (membrane fractions of homogenate)
Description: as §1, §2

[4] = system: MeW155 human melanoma cells; test: melanoma cell number in culture after incubation with compound; assay type: cell-based; details: 50 µM, 96 h incubation
Description: The determination was performed by counting the cells of the MeW155 cell line after incubating them with 50 µM of the tested compounds.
The cells were plated in 24-well plates (5000 cells per well) and incubated for 24 h in Eagle’s medium containing 10% fetal bovine serum and 1% solution of penicillin and streptomycin. […] Control cells were treated with 1% DMSO only. After 96 h of incubation, the cell suspension was first lysed in lysis buffer (ReagentA, ChemoMetec A/S) and then stabilized in stabilization buffer (ReagentB, ChemoMetec A/S). The number of […] was quantified in a propidium iodide cassette with the use of a NucleoCounter® NC-100™ (ChemoMetec A/S) cell counter. The tests were performed in triplicate. The results were normalized so that the values obtained for the control were 100%.

T2 sequence (P33533 whole entry): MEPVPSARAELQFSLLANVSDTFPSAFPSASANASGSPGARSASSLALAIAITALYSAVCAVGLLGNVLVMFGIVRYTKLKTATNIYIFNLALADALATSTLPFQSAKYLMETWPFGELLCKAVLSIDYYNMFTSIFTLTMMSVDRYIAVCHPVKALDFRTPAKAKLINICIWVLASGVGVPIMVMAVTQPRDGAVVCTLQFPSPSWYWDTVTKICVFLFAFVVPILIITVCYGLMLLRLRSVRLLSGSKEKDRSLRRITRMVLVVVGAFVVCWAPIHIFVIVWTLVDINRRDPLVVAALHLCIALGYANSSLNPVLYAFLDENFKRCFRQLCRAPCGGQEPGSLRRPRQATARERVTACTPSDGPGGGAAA
T1 sequence (P33535 whole entry): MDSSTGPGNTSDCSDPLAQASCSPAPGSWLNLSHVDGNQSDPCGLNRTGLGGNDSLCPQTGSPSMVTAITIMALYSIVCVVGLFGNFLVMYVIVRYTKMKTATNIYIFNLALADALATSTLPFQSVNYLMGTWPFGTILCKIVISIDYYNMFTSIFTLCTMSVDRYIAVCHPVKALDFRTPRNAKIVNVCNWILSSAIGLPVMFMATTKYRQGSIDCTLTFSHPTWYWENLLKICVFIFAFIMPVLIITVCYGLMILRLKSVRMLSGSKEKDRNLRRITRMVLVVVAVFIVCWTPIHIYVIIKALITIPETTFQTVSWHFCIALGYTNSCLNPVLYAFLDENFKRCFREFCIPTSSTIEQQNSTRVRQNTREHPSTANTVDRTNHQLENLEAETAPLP
T3 sequence (P14600 whole entry): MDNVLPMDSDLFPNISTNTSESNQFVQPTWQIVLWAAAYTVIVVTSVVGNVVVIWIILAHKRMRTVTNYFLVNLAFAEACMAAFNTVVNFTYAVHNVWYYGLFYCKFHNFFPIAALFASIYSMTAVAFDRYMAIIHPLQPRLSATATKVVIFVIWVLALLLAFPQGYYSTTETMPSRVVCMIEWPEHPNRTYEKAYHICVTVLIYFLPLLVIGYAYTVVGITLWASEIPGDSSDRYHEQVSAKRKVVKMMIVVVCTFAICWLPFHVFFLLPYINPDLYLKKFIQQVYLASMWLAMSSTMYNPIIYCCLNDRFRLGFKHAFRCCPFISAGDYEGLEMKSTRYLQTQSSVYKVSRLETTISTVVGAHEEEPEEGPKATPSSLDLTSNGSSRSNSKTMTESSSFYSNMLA

| Compound | IC50 [1] | MOR IC50 ratio 2a and 1a ([1]; ratio of IC50 of hydrazones 2a and 1a) | IC50 [2] | IC50 [3] | effect on number of melanoma cells (in words) [4] | number of MeW155 cells, % of the control value [4] | DOR binding (in words) ([2]; rat brain homogenate) | IC50 ([1]; rat brain homogenate, [3H]DAMGO 0.5 nM, read-out: MOR IC50 ± SEM) | IC50 ([2]; rat brain homogenate, [3H][Ile5,6]DELT II 0.5 nM, read-out: DOR IC50 ± SEM) | IC50 ([3]; rat brain homogenate, [3H]Substance P 0.5 nM, read-out: NK1R IC50 ± SEM) |
| --- | --- | --- | --- | --- | --- | --- | --- | --- | --- | --- |
| C[C@@H](NC(=O)[C@@H](N)Cc1ccc(O)cc1)C(=O)NCC(=O)N[C@@H](Cc1c[nH]c2ccccc12)C(=O)NN=Cc1cc(C(F)(F)F)cc(C(F)(F)F)c1 [2a, H-Tyr-D-Ala-Gly-Trp-NH-N=CH-3,5-(CF3)2Ph] (H-Y[dA]GW-X3) | 112 ± 16.9 nM | about 10 | 914 ± 43.5 nM | > 1000 nM | significantly decrease the number of melanoma cells | 20 ± 4 % of the control | – | – | – | – |
| C[C@@H](NC(=O)[C@@H](N)Cc1ccc(O)cc1)C(=O)NCC(=O)N[C@@H](Cc1c[nH]c2ccccc12)C(=O)NNC(=O)c1cc(C(F)(F)F)cc(C(F)(F)F)c1 [2b, H-Tyr-D-Ala-Gly-Trp-NH-NH-C(=O)-3,5-(CF3)2Ph] (H-Y[dA]GW-X4) | 93.5 ± 32.8 nM | – | 467 ± 36.9 nM | > 1000 nM | no effect | – | – | – | – | – |
| C[C@@H](NC(=O)[C@@H](N)Cc1ccc(O)cc1)C(=O)N[C@@H](Cc1ccccc1)C(=O)N[C@@H](Cc1ccccc1)C(=O)NN=Cc1cc(C(F)(F)F)cc(C(F)(F)F)c1 [3a, H-Tyr-D-Ala-Phe-Phe-NH-N=CH-3,5-(CF3)2Ph] (H-Y[dA]FF-X3) | 90.4 ± 9.91 nM | – | > 1000 nM | 723 ± 58.2 nM | significantly decrease the number of melanoma cells | ~ 2 % of the control | do not exhibit any appreciable DOR binding | – | – | – |
| C[C@@H](NC(=O)[C@@H](N)Cc1ccc(O)cc1)C(=O)N[C@@H](Cc1ccccc1)C(=O)N[C@@H](Cc1ccccc1)C(=O)NNC(=O)c1cc(C(F)(F)F)cc(C(F)(F)F)c1 [3b, H-Tyr-D-Ala-Phe-Phe-NH-NH-C(=O)-3,5-(CF3)2Ph] (H-Y[dA]FF-X4) | 391 ± 57.9 nM | – | > 1000 nM | > 1000 nM | no effect | – | do not exhibit any appreciable DOR binding | – | – | – |
| C[C@@H](NC(=O)[C@@H](N)Cc1ccc(O)cc1)C(=O)N[C@@H](Cc1c[nH]c2ccccc12)C(=O)NN=Cc1cc(C(F)(F)F)cc(C(F)(F)F)c1 [4a, H-Tyr-D-Ala-Trp-NH-N=CH-3,5-(CF3)2Ph] | 118 ± 40.2 nM | – | 621 ± 65.2 nM | > 1000 nM | significantly decrease the number of melanoma cells | 65 ± 10 % of the control | – | – | – | – |
| C[C@@H](NC(=O)[C@@H](N)Cc1ccc(O)cc1)C(=O)N[C@@H](Cc1c[nH]c2ccccc12)C(=O)NNC(=O)c1cc(C(F)(F)F)cc(C(F)(F)F)c1 [4b, H-Tyr-D-Ala-Trp-NH-NH-C(=O)-3,5-(CF3)2Ph] | – | – | – | – | no effect | – | – | > 1000 nM | > 1000 nM | > 1000 nM |
| N[C@@H](Cc1ccc(O)cc1)C(=O)N1CCC[C@H]1C(=O)N[C@@H](Cc1ccccc1)C(=O)N[C@@H](Cc1ccccc1)C(=O)NN=Cc1cc(C(F)(F)F)cc(C(F)(F)F)c1 [5a, H-Tyr-Pro-Phe-Phe-NH-N=CH-3,5-(CF3)2Ph] | 28.5 ± 9.41 nM | – | > 1000 nM | > 1000 nM | significantly decrease the number of melanoma cells | ~ 2 % of the control | do not exhibit any appreciable DOR binding | – | – | – |
| N[C@@H](Cc1ccc(O)cc1)C(=O)N1CCC[C@H]1C(=O)N[C@@H](Cc1ccccc1)C(=O)NN=Cc1cc(C(F)(F)F)cc(C(F)(F)F)c1 [6a, H-Tyr-Pro-Phe-NH-N=CH-3,5-(CF3)2Ph] | 113 ± 7 nM | – | > 1000 nM | > 1000 nM | significantly decrease the number of melanoma cells | 53 ± 3 % of the control | do not exhibit any appreciable DOR binding | – | – | – |
| C[C@@H](O[C@H]1OCCN(Cc2n[nH]c(=O)[nH]2)[C@H]1c1ccc(F)cc1)c1cc(C(F)(F)F)cc(C(F)(F)F)c1 [aprepitant, reference compound] | – | – | – | – | – | 78 ± 4 % of the control | – | – | – | – |
